Here are results for 10 molecules from patent publication US20250092069A1, “SILYL-LIPID CA[…] ENHANCED BIOLOGICAL ACTIVITY” (The Regents of the University of California, priority 2022, published 2025).

For series [1] the following is noted: cited from earlier work.
In series [2] the target is T1, CB2 (Homo sapiens, UniProt P34972). The experiment in a line: CB2 β-arrestin recruitment agonist assay (Eurofin's). Format: cell-based. Conditions: for Emax / EC50: β-arrestin recruitment, agonist mode; for EC50: read-out: RC50 (EC50), agonist, CB2.
T1 sequence (P34972 whole entry): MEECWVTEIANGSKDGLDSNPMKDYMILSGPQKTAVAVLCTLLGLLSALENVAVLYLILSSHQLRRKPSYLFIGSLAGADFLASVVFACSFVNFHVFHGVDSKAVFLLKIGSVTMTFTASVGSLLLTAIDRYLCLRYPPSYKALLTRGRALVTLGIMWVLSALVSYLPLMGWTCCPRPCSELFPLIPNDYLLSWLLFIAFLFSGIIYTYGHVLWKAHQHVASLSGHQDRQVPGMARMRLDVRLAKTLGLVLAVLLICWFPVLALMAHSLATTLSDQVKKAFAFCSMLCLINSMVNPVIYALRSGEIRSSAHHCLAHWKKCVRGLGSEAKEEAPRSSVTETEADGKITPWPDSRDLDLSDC
In another series the test system is TNF-α release. Conditions: at 30 min, LPS-induced model; cited from earlier work.
Series [3] deals with T1, CB2. The experiment in a line: CB2 β-arrestin recruitment antagonist assay (Eurofin's). Type of series: cell-based. Conditions: antagonist mode, 0.0053 μM CP55940; for IC50: β-arrestin recruitment, read-out: RC50 (IC50), antagonist, CB2. An excerpt:
(§1) For antagonist assays, data was normalized to the maximal and minimal response observed in the presence of EC80 ligand and vehicle.
A general note: Arrestin recruitment assays detect the binding of arrestin to an activated receptor.

The target in series [4] is T2, CB1 (Homo sapiens, UniProt P21554). Description: CB1 β-arrestin recruitment antagonist assay (Eurofin's). Format: cell-based. The following applies: antagonist mode, 0.016 μM CP55940; for IC50: β-arrestin recruitment, read-out: RC50 (IC50), antagonist, CB1.
T2 sequence (P21554 whole entry): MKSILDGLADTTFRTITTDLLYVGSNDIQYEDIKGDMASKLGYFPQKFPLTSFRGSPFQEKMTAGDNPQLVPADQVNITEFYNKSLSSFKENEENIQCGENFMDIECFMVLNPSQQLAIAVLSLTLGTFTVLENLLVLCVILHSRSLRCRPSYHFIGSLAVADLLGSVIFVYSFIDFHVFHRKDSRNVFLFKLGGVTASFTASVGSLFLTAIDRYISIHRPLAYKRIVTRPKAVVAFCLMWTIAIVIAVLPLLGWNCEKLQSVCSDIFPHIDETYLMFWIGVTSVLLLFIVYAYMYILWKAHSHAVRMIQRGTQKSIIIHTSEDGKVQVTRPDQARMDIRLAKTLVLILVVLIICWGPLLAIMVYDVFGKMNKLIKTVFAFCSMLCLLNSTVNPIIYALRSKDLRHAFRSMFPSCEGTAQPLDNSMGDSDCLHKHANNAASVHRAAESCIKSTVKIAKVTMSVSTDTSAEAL
Description: as §1

Series [5] has as its target T2, CB1. The experiment in a line: CB1 β-arrestin recruitment agonist assay (Eurofin's). Type of series: cell-based. The following applies: agonist mode; for EC50: read-out: RC50 (EC50), agonist, CB1.
Where [6] appears, read: normalized to response with EC80 ligand and vehicle.

As for `CC(C)(C)c1ccccc1` [t-butylbenzene], the “Log P” value in series [1] is 4.0.

As for `CCCCCCC(C)(C)c1ccc([C@@H]2C[C@H](O)CC[C@H]2CCCO)c(O)c1` [CP55,940, reference compound], on CB2 [2], the Emax is 101%.

With `O=C(O)[C@@H]1CCCN1C(=O)OCC1c2ccccc2-c2ccccc21` [Fmoc-Pro], the “Log P” value in series [1] was 0.094.

Consider `Cc1ccc(-n2nc(C(C)(C)C)cc2NC(=O)Nc2ccc(OCCN3CCOCC3)c3ccccc23)cc1` [BIRB-796], for which, in the series on TNF-α release, the TNF-α suppression is on record as 41%.

Regarding SR 144528 [reference compound], the “Emax, antagonist, CB2” value on CB2 [3] (setting [6]) amounted to 101.6%.

Turning to `C[Si]1(C)CC(C(=O)O)N(C(=O)OCC2c3ccccc3-c3ccccc32)C1` (stereo not drawn) [Fmoc-Sip], the “Log P” value in series [1] is listed as 1.3.

`Cc1c(C(=O)NN2CCOCC2)nn(-c2ccc(Cl)cc2Cl)c1-c1ccc(I)cc1` [AM281, reference compound]: the “Emax, antagonist, CB1” value on CB1 [4] (setting [6]) is on record as 106.6%. Further, the IC50 on CB1 [4] is 10.5 nM.

Turning to `C=C(C)[C@H]1CCC(C)=C[C@@H]1c1c(O)cc([Si](C)(C)CCCCCC)cc1O` [AAC-01], the Emax at CB1 [5] came to 64.8%; on CB1 [4] (setting [6]), 86.4%; at CB2 [2], 70%; at CB2 [3] (setting [6]), 69.7%. Moreover, the values for the EC50 on CB1 [5] and at CB2 [2] were 33.3 nM and 4.14 nM, respectively. The IC50 was determined as 2070 nM at CB1 [4] and 1870 nM at CB2 [3].

Regarding `C[Si](C)(C)c1ccccc1` [trimethylsilyl-benzene], the “Log P” value in series [1] was 4.7.

With `C=C(C)[C@H]1CCC(C)=C[C@@H]1c1c(O)cc(CC[Si](C)(C)CCCC)cc1O` [AAC-02], the EC50 at CB1 [5] is over 10000 nM; at CB2 [2], 18 nM. Moreover, the Emax at CB1 [4] (setting [6]) is 71.1%; at CB2 [2] it was 50.3%. Moreover, the IC50 on CB1 [4] is 2230 nM; at CB2 [3], over 10000 nM. In addition, the “selectivity for CB2 vs CB1” value at CB2 [2] (agonist EC50 CB1 vs CB2) worked out at 500 ×.

For orientation: Log P means a log measure of how a compound divides between an organic and an aqueous phase. For orientation: Emax means the size of the effect at its maximum, as opposed to the concentration needed. Broadly, the IC50 is the point on the concentration scale where inhibition reaches its midpoint. As usually defined, the EC50 is the concentration needed to bring the measured effect to its halfway point.
